ChEMBL document CHEMBL1138015, “A 13C NMR approach to categorizing potential limitations of alpha,beta-unsaturated carbonyl systems in drug-like molecules” (Bioorg Med Chem Lett, 2004)

How the values were obtained:
[1] = biological target: T1, Vascular endothelial growth factor receptor 2 (Homo sapiens, UniProt P35968); assay: Inhibition of Vascular endothelial growth factor receptor 2(KDR) without DTT (dithiothreitol)
[2] = biological target: T1, Vascular endothelial growth factor receptor 2; assay: Inhibition of Vascular endothelial growth factor receptor 2(KDR) with DTT (dithiothreitol)
[3] = Percent remaining after incubation with NADPH in S9 cell was determined; type: ADME, cell-based

T1 sequence (P35968 whole entry): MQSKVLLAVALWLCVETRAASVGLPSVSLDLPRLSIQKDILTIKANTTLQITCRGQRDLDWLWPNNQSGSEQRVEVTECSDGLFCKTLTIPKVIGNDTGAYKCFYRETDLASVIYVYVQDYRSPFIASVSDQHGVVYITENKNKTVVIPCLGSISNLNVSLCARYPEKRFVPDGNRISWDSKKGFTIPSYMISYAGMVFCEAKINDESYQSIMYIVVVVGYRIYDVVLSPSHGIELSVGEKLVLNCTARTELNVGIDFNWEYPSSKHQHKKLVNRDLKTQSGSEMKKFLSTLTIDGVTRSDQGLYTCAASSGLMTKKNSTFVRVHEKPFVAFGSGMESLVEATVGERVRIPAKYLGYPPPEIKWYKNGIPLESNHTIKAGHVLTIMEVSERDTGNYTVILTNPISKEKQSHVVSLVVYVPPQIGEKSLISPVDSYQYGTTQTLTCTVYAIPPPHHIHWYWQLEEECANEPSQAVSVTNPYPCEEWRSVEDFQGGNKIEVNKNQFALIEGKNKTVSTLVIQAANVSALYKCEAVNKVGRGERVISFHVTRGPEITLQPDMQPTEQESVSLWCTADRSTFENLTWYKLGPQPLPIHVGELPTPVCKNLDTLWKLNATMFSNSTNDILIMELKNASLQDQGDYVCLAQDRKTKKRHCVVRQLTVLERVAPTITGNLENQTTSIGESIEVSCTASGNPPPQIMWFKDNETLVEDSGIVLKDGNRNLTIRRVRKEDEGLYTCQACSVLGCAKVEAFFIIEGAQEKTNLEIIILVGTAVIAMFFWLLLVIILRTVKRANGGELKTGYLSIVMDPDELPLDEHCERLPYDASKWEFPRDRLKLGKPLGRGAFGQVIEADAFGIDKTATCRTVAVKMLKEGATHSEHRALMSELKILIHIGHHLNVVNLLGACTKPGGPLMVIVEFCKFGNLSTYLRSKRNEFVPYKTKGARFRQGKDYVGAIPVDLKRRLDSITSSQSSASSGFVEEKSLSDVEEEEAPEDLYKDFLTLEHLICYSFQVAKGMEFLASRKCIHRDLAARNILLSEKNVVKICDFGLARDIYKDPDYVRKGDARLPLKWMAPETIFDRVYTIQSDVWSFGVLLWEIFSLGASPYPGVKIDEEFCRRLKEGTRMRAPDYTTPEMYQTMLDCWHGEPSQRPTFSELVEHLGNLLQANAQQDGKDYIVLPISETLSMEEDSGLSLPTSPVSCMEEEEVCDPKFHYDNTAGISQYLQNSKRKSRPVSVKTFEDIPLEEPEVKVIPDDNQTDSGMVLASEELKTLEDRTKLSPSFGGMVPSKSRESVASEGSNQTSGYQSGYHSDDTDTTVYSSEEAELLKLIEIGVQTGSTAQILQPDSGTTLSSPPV

O=C1Nc2ccccc2S/C1=C\c1c[nH]c2c(C(=O)N3CCC(N4CCCCC4)CC3)cccc12
IC50 [1]: 720 nM | IC50 [2]: 170 nM

Cc1c(/C=C2\C(=O)NN=C2c2cnccn2)[nH]c2ccccc12
IC50 [1]: 60 nM | IC50 [2]: 140 nM

CCN(CC)CCc1c(C)[nH]c(/C=C2\C(=O)NN=C2c2cnccn2)c1C
IC50 [1]: 210 nM | IC50 [2]: 80 nM | Remaining activity [3]: 72%

O=C1NN=C(c2cnccn2)/C1=C/c1cc2ccccc2[nH]1
IC50 [1]: 410 nM | IC50 [2]: 40000 nM

O=C1NN=C(c2cnccn2)/C1=C/c1[nH]c2ccccc2c1-c1ccccc1
IC50 [1]: 20 nM | IC50 [2]: 470 nM

O=C1Nc2ccccc2S/C1=C\c1c[nH]c2cc(OCCN3CCOCC3)ccc12
IC50 [1]: 290 nM | IC50 [2]: 160 nM

Cc1[nH]c(/C=C2\C(=O)NN=C2c2cnccn2)c(C)c1CN(C)C
Remaining activity [3]: 18%

CCN(CC)CCc1c(C)[nH]c(/C=C2\C(=O)NN=C2C2CC2)c1C
IC50 [1]: 2500 nM | IC50 [2]: 840 nM | Remaining activity [3]: 80%
